TGI and GI50 data for 19 molecules are collected here from PubChem BioAssay (NCI).

Among the test systems are DLD-1 colon; DMS 114 small cell lung; DU-145 prostate; HOP-18 NSCLC; HS 578T breast; MCF7 breast; MDA-MB-231 breast; MDA-MB-435; NCI/ADR-RES ovarian; T-47D breast.
Holding throughout (assay): NCI-60 cell line screen, 48 h

Molecules are shown by their SMILES. “And” between values parts separate entries of the source, which are not always exact repeats. Equal values may be shown once.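 All cell lines were grown in 96-well plates and treated with compound for 48 hours. GI50 = concentration required for 50% inhibition of growth. TGI is the concentration that stops growth completely.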

As to `O=c1n(CC2CO2)c(=O)n(CC2CO2)c(=O)n1CC1CO1` (stereo not given), the TGI was 143 µM in the assay with DLD-1 colon; 70.9 µM in the assay on DMS 114 small cell lung; 66.2 µM and 127 µM and 37.3 µM with DU-145 prostate; 202 µM in the assay with HOP-18 NSCLC; 188 µM and > 100 µM with HS 578T breast; 85.7 µM and > 100 µM in the assay on MCF7 breast. For the same molecule, the TGI in the assay with MDA-MB-231 breast is 84.8 µM and > 100 µM; with MDA-MB-435 it was 63.8 µM and > 100 µM; in the assay on NCI/ADR-RES ovarian, 237 µM and > 100 µM; in the assay with T-47D breast, 70.3 µM and > 100 µM. Also, the GI50 was 11 µM and 3.22 µM in the assay on DU-145 prostate; 21.6 µM in the assay on HS 578T breast; 3.9 µM and 1.89 µM in the assay with MCF7 breast; 35.1 µM and 52.4 µM in the assay with MDA-MB-231 breast; 16.3 µM and 11.7 µM in the assay on NCI/ADR-RES ovarian; 7.66 µM and 10 µM with T-47D breast.
For the molecule `C=C(CCCCC)CN1CCCC1[C@@](C)(O)CC(=O)OCC` (stereo not given in full), the TGI in the assay with DLD-1 colon, with DMS 114 small cell lung and in the assay on HOP-18 NSCLC was above 100 µM throughout.
`CS(=O)(=O)N/N=C/CN1C(=O)c2ccccc2C1=O`: the TGI in the assay on DLD-1 colon, with DMS 114 small cell lung and in the assay on HOP-18 NSCLC was above 100 µM throughout.
`CCCCOC(=O)C1C(c2ccc(Cl)cc2)NC(c2ccc(Cl)cc2)C(C(=O)OCCCC)S1(=O)=O` (stereo not given): the TGI with DLD-1 colon, with DMS 114 small cell lung and with HOP-18 NSCLC was above 100 µM each time.
Turning to `COc1ccc(C2S/C(=C\c3ccccc3O)C(=O)N2NC(=O)Cc2ccccc2)cc1` (stereo not given), the TGI in the assay with DLD-1 colon, with DMS 114 small cell lung and with HOP-18 NSCLC was above 100 µM each time.
Consider `COC(=O)C12C3C4C1C1C2C3C41C(=O)OC(C)(C)C` (stereo not given), for which the TGI in the assay with DLD-1 colon is above 72.3 µM; in the assay with DMS 114 small cell lung, above 67.4 µM; in the assay on HOP-18 NSCLC it was above 100 µM.
For `CNC(=S)NC1CCCCC1NC(=S)NC` (stereo not given), the TGI in the assay with DLD-1 colon, in the assay with DMS 114 small cell lung and in the assay with HOP-18 NSCLC was above 100 µM in each case.
On to `COC(=O)c1cc2c3ccccc3n(C(C)=O)c2cn1`, for which the TGI in the assay with DLD-1 colon, in the assay with DMS 114 small cell lung and with HOP-18 NSCLC was above 100 µM throughout.
On to `COC(=O)C1=C(c2ccc3c(c2)OCO3)O[C@H](c2cc(OC)c(OC)c(OC)c2)[C@H]1COC(C)=O`, for which the TGI in the assay with DLD-1 colon is above 100 µM; in the assay with DMS 114 small cell lung, 5.8 µM; with HOP-18 NSCLC, 60.9 µM.
In the same order, the values of `O=C1CCCC/C(=C/c2ccccc2)N1` are above 100 µM, above 100 µM and above 100 µM.
In the same order, the values of `C=C(C=O)[C@@H]1C2OC(=O)C(=C)[C@@H]2CC(O)[C@@]1(C)CC` (stereo not given in full) are 9.7 µM, 36.8 µM and 41.3 µM.
The matching figures for `O=c1nc2occc2cn1C1CC(O)C(CO)O1` (stereo not given): above 100 µM, above 100 µM and above 100 µM.
Take `O=S(=O)([O-])c1ccc2c(c1)-c1nc-2nc2[n-]c(nc3nc(nc4[n-]c(n1)c1ccc(S(=O)(=O)[O-])cc41)-c1cc(S(=O)(=O)[O-])ccc1-3)c1ccc(S(=O)(=O)[O-])cc21.[Cu+2].[Na+]`: the GI50 in the assay with DLD-1 colon was 7.65 µM; in the assay with DMS 114 small cell lung, 31.2 µM; in the assay with DU-145 prostate, above 100 µM; in the assay with HOP-18 NSCLC, above 100 µM; in the assay with HS 578T breast, above 100 µM; with MCF7 breast, above 100 µM. Further, the GI50 was above 100 µM in the assay on MDA-MB-231 breast, above 100 µM in the assay on MDA-MB-435 and 75.6 µM in the assay with T-47D breast. The TGI in the assay on DLD-1 colon, with DMS 114 small cell lung, with DU-145 prostate, in the assay with HOP-18 NSCLC, in the assay with HS 578T breast and in the assay with MCF7 breast was above 100 µM each time. In addition, the TGI with MDA-MB-231 breast, in the assay on MDA-MB-435 and in the assay with T-47D breast was above 100 µM each time.
With `O=C(O/N=C1/CCCC/C1=C\c1ccccc1)c1ccccc1`, the TGI is above 100 µM in the assay on DLD-1 colon, 31.3 µM in the assay on DMS 114 small cell lung and above 100 µM in the assay with HOP-18 NSCLC.
For the molecule `CC1=CC(/C=C(\C)CCCc2ccoc2)C2(OC(=O)C(C)=C2O)[C@H]2C1CC[C@@H]2C` (stereo not given in full), the TGI in the assay with DLD-1 colon was above 100 µM; in the assay with DMS 114 small cell lung, 72.2 µM; in the assay on HOP-18 NSCLC, 82.6 µM.
The matching figures for `Cc1cc(Br)cc(C)c1NC(=O)C(=O)C(C(=O)c1ccc2ccccc2c1)C1OC(=O)c2ccccc21` (stereo not given): 34.2 µM, 41.8 µM and 41.3 µM.
As to `O=S(O)CCCCSSCC(O)C(O)CSSCCCCS(=O)O` (stereo not given), the TGI in the assay with DLD-1 colon is above 100 µM; in the assay on DMS 114 small cell lung it was 34 µM and 56.6 µM; with HOP-18 NSCLC, above 100 µM.
Consider `COc1ccc(NC(=O)CCc2cc(-c3ccc(O)c(OC)c3)nc(NC#N)n2)cc1`, for which the TGI in the assay with DLD-1 colon, with DMS 114 small cell lung and in the assay with HOP-18 NSCLC was above 100 µM in each case.
Consider `O=C1c2ccccc2C(=O)C1(Cl)C1(S(=O)(=O)O)c2ccccc2-c2ccccc21`, for which the TGI in the assay with DLD-1 colon, in the assay with DMS 114 small cell lung and in the assay on HOP-18 NSCLC was above 100 µM each time.
